According to patent publication US12492210B2, “Tricyclic compounds and their use” (HUTCHISON MEDIPHARMA LIMITED, priority 2019, dated 2025):
pIC50: −log10 of the molar value.

Key:
[1] = target: T1, MAPK1(ERK2) enzyme (Homo sapiens, UniProt P28482); experiment: Z-Lyte Kinase Assay of ERK2; assay type: biochemical; settings: read-out: Example 18 IC50
T1 construct: purchased Invitrogen PV3313
Description: Example 18: Z-Lyte Kinase Assay of ERK2
1. Materials and Reagents:
2. Reaction Steps: Plate Map
3. Solution Preparation • 1) 1.33× Kinase Buffer: Dilute 5× Kinase Buffer to 1.33× with ddH2O • 2) 4× Test Compounds: Serially dilute the test compounds to 4 folds of the concentrations desired, keeping the DMSO concentration at 8%. The final concentrations are 1, 0.33, 0.11, 0.037, 0.012, 0.004, 0.0014, 0.00046 μM, and the final concentration of DMSO is 2%. • 3) Kinase/Peptide Mixture (P/K solution): Prepare Kinase/Peptide Mixture by diluting the kinase to 0.6 μg/ml and the Z-LYTE™ Ser/Thr3 peptide to 4 μM in 1.33× Kinase Buffer. Mix gently by pipetting. • 4) Phospho-peptide Solution (PP solution): Add 0.4 μl of Z-LYTE™ Ser/Thr3 Phospho-peptide to 99.6 μl of 1.33× Kinase Buffer. • 5) ATP Solution: Prepare ATP Solution by diluting the 10 mM of ATP in 1.33× Kinase Buffer to 100 μM. • 6) Development Solution: Dilute Development Reagent A with Development Buffer as 1:1024. 4. Reaction • 1) Kinase reaction (10 μl of Volume) • a. In a 384-well plate, add 2.5 μl of 4× test Cpds to each well except C1, C2, C3 wells Add 2.5 μl of 8% DMSO to C1, C2, C3 wells • b. Put the plate on ice • c. Add 5 μl of P/K mixture to each test Cpd wells and C1, C2 wells • d. Add 5 μl of PP Solution to C3 well • e. Add 2.5 μl of 1.33× kinase buffer to C1 and C3 wells • f. Add 2.5 μl of 4×ATP Solution to each test Cpd wells and C2 well, respectively. Shake the plate for 30 Sec and centrifuge (1500 rpm, 1 min) • g. Seal the plate to protect from the light and incubate the plate for 1 hour at RT (25-30° C.) • 2) Development reaction • a. Add 5 μl of the Development solution to all wells • b. Shake the plate for 30 sec and centrifuge (1500 rpm, 1 min) • c. Seal the plate to protect from the light and incubate the plate for 1 hour at RT (25-30° C.) • 3) Stop and read • a. Add 5 μl of the Stop reagent to all wells • b. Shake the plate for 30 sec and centrifuge (1500 rpm, 1 min) • c. Measure the value of coumarin (Ex400 nm, Em445 nm) and fluorescein (Ex400 nm, Em520 nm), respectively. 5. Data Analysis Emission Ratio(ER)=Coumarin Emission (445 nm)/Fluorescein Emission (520 nm) % Phosphorylation=1−[ER×C3520nm−C3445nm]/[(C1445nm−C3445nm)+ER×(C3520nm−C1520nm)] Inhibition rate (IR)=1−% Photest Cpd% PhoC2 6. IC50 Value: determine IC50 with add-in software for Microsoft Excel, XLfit™ (version 2.0) from ID Business Solutions (Guildford, UK)

[2] = system: p-RSK (Thr359) in colo205 cells; experiment: p-RSK (Thr359) Acumen Assay in Colo205; assay type: cell-based; settings: Homo sapiens, COLO 205, 1 hour compound incubation, read-out: Example 19 IC50
Description: Example 19: p-RSK (Thr359) Acumen Assay in Colo205
• Phospho-p90RSK (Thr359) (D1E9) Rabbit mAb: cell signal, #8753 • Alexa Fluor® 488 donkey anti-rabbit IgG: invitrogen, #A-21206 • Propidium Iodide: Sigma, #p4170 • 4% Paraformaldehyde: SCRC, #DF021 • 10% Triton X-100: PIERCE, #28314 • 96-well plate (black with clear bottom): BD, #354640 • Acumen® eX3 (A Multilaser Microplate Cytometer For Enhanced High Content Screening): TTP LabTech 3. Acumen Assay Protocol • Seed 4000 cells in 100 μl 10% FBS/well into 96-well plate, incubate at 37° C., 5% CO2, overnight. • Dilute the compound to 3, 1, 0.33, 0.11, 0.037, 0.012, 0.004, 0.001 μM, keeping the DMSO concentration at 5%. Add 10 μl of diluted compound per well and incubate at 37° C., 5% CO2 for 1 hour. • Add 100 μl of 4% pre-warmed Paraformaldehyde (2% final), and incubate for 45 min at room temperature. • Remove paraformaldehyde solutions. Add 100 μl of ice-cold 0.1% Triton to fixed cells at room temperature for 30 min. • Wash twice with 150 μl PBS and incubate with 100 μl blocking buffer (1% BSA, in PBS) for 2˜3 hours at room temperature, seal the plate. • Wash once with PBS and incubate with 35 μl p-RSK (Thr359) (1:1000 dilution) overnight at 4° C. Seal the plate. • Wash twice with PBS and incubate for 1.5 hours at room temperature with 35 μl of Alexa Fluor® 488 donkey anti-rabbit IgG at a 1:1,000 dilution in antibody dilution buffer (0.1% BSA, in PBS). Cover plate in foil to keep out of light. • Wash twice with 150 μl PBS. Add 35 μl of 1.5 μM Propidium Iodide stock to each well to determine cell number, seal the plate. • Incubate at room temperature for 30 min. Load the plate into the Acumen Explorer and scan with the appropriate instrument settings. 4. Data Analysis
[formula] Note: • Percentagecompound well represents the positive percentage of cells treated by compound. • Percentagemin well represents the positive percentage of cells treated with 3 uM GDC0994. • Percentagemax well represents the positive percentage of cells without compounds treatment. 5. IC50 Value: determine IC50 with add-in software for Microsoft Excel, XLfit™ (version 2.0) from ID Business Solutions (Guildford, UK)

T1 sequence (P28482 whole entry): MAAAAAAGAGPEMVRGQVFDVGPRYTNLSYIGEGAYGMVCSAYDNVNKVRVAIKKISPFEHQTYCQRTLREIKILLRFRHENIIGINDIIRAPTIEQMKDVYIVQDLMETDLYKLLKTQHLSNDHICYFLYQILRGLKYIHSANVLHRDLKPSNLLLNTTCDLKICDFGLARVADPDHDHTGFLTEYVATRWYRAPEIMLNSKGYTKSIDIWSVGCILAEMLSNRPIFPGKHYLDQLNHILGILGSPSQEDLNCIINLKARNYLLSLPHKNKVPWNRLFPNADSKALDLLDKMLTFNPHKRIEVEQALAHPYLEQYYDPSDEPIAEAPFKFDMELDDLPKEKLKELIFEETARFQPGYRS

SMILES | pIC50 [1] | pIC50 [2]
Cn1nccc1Nc1nccc(-c2cc3n(c2)CCCn2c(CCc4ccccc4F)nnc2-3)n1 [Compound 1, 4-(3-(2-fluorophenethyl)-6,7-dihydro-5H-pyrrolo[1,2-a][1,2,4]triazolo[3,4-c][1,4]diazepin-10-yl)-N-(1-methyl-1H-pyrazol-5-yl)pyrimidin-2-amine] | ≥ 8.30 | < 7.00
Cn1nccc1Nc1nccc(-c2cc3c4nnc(COc5ccccc5F)n4ccn3c2)n1 [Compound 2] | ≥ 8.30 | ≥ 7.00
Cn1nccc1Nc1nccc(-c2cc3n(c2)CCn2c(COc4ccccc4F)nnc2-3)n1 [Compound 3] | ≥ 8.30 | ≥ 7.00
Cn1nccc1Nc1cc(-c2cc3n(c2)CCCn2c-3nnc2C2(C#N)CCC2)c(Cl)cn1 [Compound 4] | ≥ 8.30 | < 7.00
Cc1cnc(Nc2ccnn2C)nc1-c1cc2n(c1)CCn1c-2nnc1C1(C(F)(F)F)CCC1 [Compound 5] | ≥ 8.30 | < 7.00
Cc1cnc(Nc2ccnn2C)nc1-c1cc2n(c1)CCCn1c(Cc3ccccc3F)nnc1-2 [Compound 6] | 8.00 to 8.30 | ≥ 7.00
Cc1cnc(Nc2ccnn2C)nc1-c1cc2n(c1)CCn1c(COc3ccccc3F)nnc1-2 [Compound 7] | ≥ 8.30 | ≥ 7.00
Cn1nccc1Nc1nccc(-c2cc3n(c2)CCCn2c(Cc4ccccc4Cl)nnc2-3)n1 [Compound 8] | ≥ 8.30 | < 7.00
Cn1nccc1Nc1cc(-c2cc3n(c2)CCn2c(Cc4ccccc4F)nnc2-3)c(Cl)cn1 [Compound 9] | ≥ 8.30 | ≥ 7.00
Cc1nonc1Cc1nnc2n1CCCn1cc(-c3cc(Nc4ccnn4C)ncc3Cl)cc1-2 [Compound 10] | ≥ 8.30 | < 7.00
Cn1nccc1Nc1cc(-c2cc3n(c2)CCCn2c(COC(F)(F)F)nnc2-3)c(Cl)cn1 [Compound 11] | ≥ 8.30 | ≥ 7.00
Cc1cnc(Nc2ccnn2C)nc1-c1cc2n(c1)CCCn1c-2nnc1C1(C(F)(F)F)CCC1 [Compound 12] | ≥ 8.30 | ≥ 7.00
Cc1c(-c2ccnc(Nc3ccnn3C)n2)cn2c1-c1nnc(C3(C(F)(F)F)CCC3)n1CCC2 [Compound 13] | ≥ 8.30 | < 7.00
C[C@@H](c1ccccc1)c1nnc2n1CCCn1cc(-c3cc(Nc4ccnn4C)ncc3Cl)cc1-2 [Compound 15] | 8.00 to 8.30 | ≥ 7.00
Cc1c(-c2ccnc(Nc3ccnn3C)n2)cn2c1-c1nnc(COc3ccccc3F)n1CCC2 [Compound 16] | ≥ 8.30 | ≥ 7.00
Cc1cnc(Nc2ccnn2C)nc1-c1cc2n(c1)CCCn1c(COc3ccccc3F)nnc1-2 [Compound 17] | ≥ 8.30 | ≥ 7.00
Cn1nccc1Nc1cc(-c2cc3n(c2)CCCn2c-3nnc2C(O)c2ccccc2)c(Cl)cn1 (centres unmarked) [Compound 18] | 8.00 to 8.30 | < 7.00
Cn1nccc1Nc1nccc(-c2cc3n(c2)CCCn2c(CSc4ccccc4F)nnc2-3)n1 [Compound 19] | ≥ 8.30 | ≥ 7.00
Cn1nccc1Nc1cc(-c2cc3n(c2)CCn2c-3nnc2C2(C(F)(F)F)CCC2)c(Cl)cn1 [Compound 20] | ≥ 8.30 | ≥ 7.00

SMILES | pIC50 [1] | pIC50 [2]
Cn1nccc1Nc1cc(-c2cc3n(c2)CCCn2c-3nnc2C2(C(F)(F)F)CC2)c(Cl)cn1 [Compound 21] | ≥ 8.30 | < 7.00
Cn1nccc1Nc1cc(-c2cc3n(c2)CCCn2c-3nnc2C(C)(C)C(F)(F)F)c(Cl)cn1 [Compound 22] | ≥ 8.30 | < 7.00
Cn1nccc1Nc1cc(-c2cc3n(c2)CCn2c(COc4ccccc4F)nnc2-3)c(Cl)cn1 [Compound 23] | 8.00 to 8.30 | ≥ 7.00
Cn1nccc1Nc1cc(-c2cc3n(c2)CCCn2c-3nnc2[C@H](O)C2CCCCC2)c(Cl)cn1 [Compound 24] | 8.00 to 8.30 | < 7.00
Cn1nccc1Nc1cc(-c2cc3n(c2)CCCn2c(COCC(F)(F)F)nnc2-3)c(Cl)cn1 [Compound 25] | ≥ 8.30 | < 7.00
Cn1nccc1Nc1cc(-c2cc3n(c2)CCCn2c-3nnc2[C@](C)(O)C(F)(F)F)c(Cl)cn1 [Compound 26] | ≥ 8.30 | ≥ 7.00
Cn1nccc1Nc1cc(-c2cc3n(c2)CCCn2c(Cc4ccccc4C#N)nnc2-3)c(Cl)cn1 [Compound 27] | ≥ 8.30 | ≥ 7.00
Cc1cnc(Nc2ccnn2C)nc1-c1cc2n(c1)CCCn1c-2nnc1C1(C(F)(F)F)CCCC1 [Compound 28] | ≥ 8.30 | ≥ 7.00
Cc1c(-c2ccnc(Nc3ccnn3C)n2)cn2c1-c1nnc([C@H](C)Oc3ccccc3F)n1CCC2 [Compound 29] | ≥ 8.30 | ≥ 7.00
Cn1nccc1Nc1cc(-c2cc3n(c2)CCCn2c-3nnc2C2(C(F)(F)F)CCC2)c(Cl)cn1 [Compound 30] | ≥ 8.30 | ≥ 7.00
Cn1nccc1Nc1cc(-c2cc3n(c2)CCCn2c-3nnc2C2(C(F)(F)F)CCCC2)c(Cl)cn1 [Compound 31] | 8.00 to 8.30 | ≥ 7.00
Cn1nccc1Nc1cc(-c2cc3n(c2)CC(F)(F)Cn2c-3nnc2C2(C(F)F)COC2)c(Cl)cn1 [Compound 32] | ≥ 8.30 | ≥ 7.00
Cn1nccc1Nc1cc(-c2cc3n(c2)CCCn2c(Cc4c(F)cccc4Cl)nnc2-3)c(Cl)cn1 [Compound 33] | < 8.00 | ≥ 7.00
Cn1nccc1Nc1cc(-c2cc3n(c2)CCCn2c(COC4(C(F)(F)F)CCC4)nnc2-3)c(Cl)cn1 [Compound 34] | < 8.00 | < 7.00
Cn1nccc1Nc1cc(-c2cc3n(c2)CCCn2c-3nnc2C(F)(F)c2ccccc2Cl)c(Cl)cn1 [Compound 35] | < 8.00 | ≥ 7.00
Cn1nccc1Nc1nccc(-c2cc3n(c2)CCCn2c(COc4ccccc4)nnc2-3)n1 [Compound 36, N-(1-methyl-1H-pyrazol-5-yl)-4-(3-(phenoxymethyl)-6,7-dihydro-5H-pyrrolo[1,2-a][1,2,4]triazolo[3,4-c][1,4]diazepin-10-yl)pyrimidin-2-amine] | ≥ 8.30 | < 7.00
Cn1nccc1Nc1nccc(-c2cc3n(c2)CCCn2c(COc4ccccc4F)nnc2-3)n1 [Compound 37] | ≥ 8.30 | ≥ 7.00
Cn1nccc1Nc1cc(-c2cc3n(c2)CCCn2c(COc4ccccc4F)nnc2-3)c(Cl)cn1 [Compound 38] | < 8.00 | ≥ 7.00
